We go through 19 sequences from patent US7745390B2, “Antimicrobial peptides” (priority 2005, dated 2010).

In one test the test system is Salmonella. The format is cell-based, S. typhimurium. The settings on record: pH 7.2. In outline: (§1)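 Peptides were diluted in 10 mM phosphate buffer, pH 7.2 with 0.03% LB and incubated with bacteria (~5×10^6 CFU/ml) for 3 h at 37 °C in microtiter wells. LB was then added, growth continued overnight, and OD 600 nm was read. MIC is the lowest concentration with no growth; IC50 gives 50% growth versus medium.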

Another test deals with B. cereus. The format is cell-based. The settings on record: pH 7.2. In outline: as §1
For a further test, the system named is E. coli DH5a. It is filed as cell-based. The settings on record: DH5a, pH 7.2. In outline: as §1

Ends that are not written are not given here.

In general, IC50 refers to the concentration that gives 50% inhibition. The low end stands for higher potency, the high end for lower potency.

In the case of RRLLRRLLRR [Peptide G11.20, RRLLRRLLRR], in the test on Salmonella, the IC50 was found to be 7690 nM and the “Salmonella MIC” value was more than 10 µM. In addition, in the test with B. cereus, the “B. cereus MIC” value was more than 10 µM and the IC50 was more than 10000 nM. In the test with E. coli DH5a, the “E. coli DH5a MIC” value is more than 10 µM and the IC50 was found to be 7700 nM.
In the case of RRLLRRLLRRGSRRLLRRLLRR [Peptide G11.23], in the test on Salmonella, half-maximal inhibition (IC50) was put at 450 nM and the “Salmonella MIC” value amounted to 0.71 µM. In the test on B. cereus, the “B. cereus MIC” value was 0.7 µM and the IC50 turned out to be 410 nM. Moreover, in the test on E. coli DH5a, the “E. coli DH5a MIC” value was determined as 0.7 µM and the IC50 turned out to be 450 nM.
For RRPSRRFPRR [Peptide G11.37, RRPSRRFPRR], in the test on Salmonella, the IC50 is 1680 nM and the “Salmonella MIC” value is 2.9 µM. Further, in the test on B. cereus, the “B. cereus MIC” value is more than 10 µM and the IC50 is more than 10000 nM. In the test with E. coli DH5a, the “E. coli DH5a MIC” value stood at 2.4 µM and the IC50 was 450 nM.
As to RRVSRRFMRR [Peptide G11.3, RRVSRRFMRR], in the test with Salmonella, the IC50 is more than 10000 nM and the “Salmonella MIC” value was more than 10 µM. Further, in the test on B. cereus, the “B. cereus MIC” value was more than 10 µM and the midpoint of inhibition, the IC50, lay at 7700 nM. Also, in the test with E. coli DH5a, the “E. coli DH5a MIC” value was 2.85 µM and half-maximal inhibition (IC50) required 1760 nM.
For RRVSRRFMRR [Peptide G11.44, RRVSRRFMRR], in the test on Salmonella, half-maximal inhibition (IC50) required 3150 nM and the “Salmonella MIC” value came to 5.75 µM. In addition, in the test on B. cereus, the “B. cereus MIC” value was more than 10 µM and the midpoint of inhibition, the IC50, lay at 7700 nM. In the test with E. coli DH5a, the “E. coli DH5a MIC” value worked out at 0.38 µM and inhibition was half-maximal at 210 nM (IC50).
For the sequence RRVSRRFMRRGSRRVSRRFMRR [Peptide G11.7], in the test with Salmonella, the IC50 is 210 nM and the “Salmonella MIC” value stood at 0.35 µM. Besides, in the test with B. cereus, the “B. cereus MIC” value was 0.35 µM and the midpoint of inhibition, the IC50, lay at 210 nM. For the same sequence, in the test on E. coli DH5a, the “E. coli DH5a MIC” value stood at 0.35 µM and the IC50 was 210 nM.
As to “RRVSRRFMRRGSRRVSRRFMRRGSRRVSRRFMRR [Peptide G11.10]”, in the test with Salmonella, the half-maximal inhibitory concentration (IC50) came to 210 nM and the “Salmonella MIC” value was determined as 0.35 µM. Also, in the test on B. cereus, the “B. cereus MIC” value came to 0.35 µM and the IC50 worked out at 210 nM. Moreover, in the test with E. coli DH5a, the “E. coli DH5a MIC” value is 0.35 µM and the concentration for half-maximal inhibition (IC50) was found to be 210 nM.
Turning to “RRVSRRFMRRSGSGSGSGQQMVQQSGQQFS [Peptide G11.40]”, in the test with Salmonella, the IC50 was more than 10000 nM and the “Salmonella MIC” value was more than 10 µM. In the test with B. cereus, the “B. cereus MIC” value was more than 10 µM and the IC50 is more than 10000 nM. Also, in the test on E. coli DH5a, the “E. coli DH5a MIC” value was more than 10 µM and the IC50 turned out to be 3280 nM.
With “RRVSRRFMRRSRWARKGSGQMVQQSSQQFQ [Peptide G11.41]”, in the test on Salmonella, the half-maximal inhibitory concentration (IC50) was determined as 3250 nM and the “Salmonella MIC” value was 5.6 µM. In addition, in the test on B. cereus, the “B. cereus MIC” value was 1.38 µM and the IC50 stood at 890 nM. In addition, in the test with E. coli DH5a, the “E. coli DH5a MIC” value was determined as 3.5 µM and inhibition was half-maximal at 960 nM (IC50).
For RRVSRRFMRRYQSRVIQGLV [Peptide G12.6], in the test on Salmonella, half-maximal inhibition (IC50) required 900 nM and the “Salmonella MIC” value turned out to be 1.45 µM. In the test with B. cereus, the “B. cereus MIC” value was found to be 0.7 µM and the IC50 was 420 nM. Further, in the test on E. coli DH5a, the “E. coli DH5a MIC” value was determined as 1.45 µM and the IC50 came to 890 nM.
For RRVSRRFMRRYQSRVPQGLV [Peptide G12.10], in the test with Salmonella, the IC50 was 850 nM and the “Salmonella MIC” value came to 1.4 µM. In the test on B. cereus, the “B. cereus MIC” value worked out at 1.4 µM and the IC50 was 890 nM. In addition, in the test on E. coli DH5a, the “E. coli DH5a MIC” value turned out to be 0.7 µM and the IC50 was determined as 450 nM.
For the sequence RRVSRRFMRRYRSRRIRRLV [Peptide G12.8], in the test with Salmonella, the 50% inhibitory concentration (IC50) worked out at 410 nM and the “Salmonella MIC” value came out at 0.65 µM. Besides, in the test on B. cereus, the “B. cereus MIC” value came to 0.71 µM and half-maximal inhibition (IC50) required 450 nM. Further, in the test on E. coli DH5a, the “E. coli DH5a MIC” value was found to be 0.7 µM and the IC50 is 450 nM.
Turning to RRVSRRFMRRYRSRVIRGLV [Peptide G12.7], in the test with Salmonella, inhibition was half-maximal at 220 nM (IC50) and the “Salmonella MIC” value is 0.35 µM. Besides, in the test on B. cereus, the “B. cereus MIC” value worked out at 0.35 µM and 210 nM corresponded to half-maximal inhibition (IC50). Further, in the test with E. coli DH5a, the “E. coli DH5a MIC” value was found to be 0.71 µM and the concentration for half-maximal inhibition (IC50) came out at 250 nM.
Regarding RRVVRRFMRR [Peptide G11.16, RRVVRRFMRR], in the test on Salmonella, the IC50 came to 3450 nM and the “Salmonella MIC” value came out at 5.6 µM. Further, in the test with B. cereus, the “B. cereus MIC” value was more than 10 µM and the IC50 stood at 7700 nM. Moreover, in the test on E. coli DH5a, the “E. coli DH5a MIC” value turned out to be 1.4 µM and the IC50 was determined as 800 nM.
For RRVVRRLLRR [Peptide G11.19, RRVVRRLLRR], in the test on Salmonella, the IC50 was 7690 nM and the “Salmonella MIC” value is more than 10 µM. Also, in the test on B. cereus, the “B. cereus MIC” value worked out at 6.65 µM and the 50% inhibitory concentration (IC50) was 3410 nM. Also, in the test on E. coli DH5a, the “E. coli DH5a MIC” value was more than 10 µM and the midpoint of inhibition, the IC50, lay at 7450 nM.
Turning to “SDVAKKFMKKQSKVIKKLV [Peptide G12.23, SDVAKKFMKKQSKVIKKLV]”, in the test on Salmonella, the 50% inhibitory concentration (IC50) is more than 10000 nM and the “Salmonella MIC” value was more than 10 µM. For the same sequence, in the test on B. cereus, the “B. cereus MIC” value was more than 10 µM and it took 7700 nM to reach half-maximal inhibition (IC50). In the test on E. coli DH5a, the “E. coli DH5a MIC” value amounted to 3 µM and inhibition was half-maximal at 1000 nM (IC50).
For the sequence “SDVARRFMRRQSRVIRRLV [Peptide G12.22, SDVARRFMRRQSRVIRRLV]”, in the test on Salmonella, the IC50 was determined as 890 nM and the “Salmonella MIC” value is 1.39 µM. In the test with B. cereus, the “B. cereus MIC” value worked out at 5.7 µM and the IC50 stood at 3500 nM. In the test on E. coli DH5a, the “E. coli DH5a MIC” value is 1.38 µM and the IC50 worked out at 870 nM.
Take “VHKRRVSRRFMRRLGH [Peptide G11.42, VHKRRVSRRFMRRLGH]”: in the test on Salmonella, the IC50 was determined as 1350 nM and the “Salmonella MIC” value is 2.8 µM. In the test on B. cereus, the “B. cereus MIC” value is 0.4 µM and the half-inhibitory concentration (IC50) came to 110 nM. Moreover, in the test with E. coli DH5a, the “E. coli DH5a MIC” value turned out to be 0.35 µM and the IC50 was found to be 210 nM.
With “WRDVSRNFMRRGRSRGWRDVSRNFMRR [Peptide G11.36]”, in the test on Salmonella, the IC50 came out at 890 nM and the “Salmonella MIC” value is 1.38 µM. For the same sequence, in the test on B. cereus, the “B. cereus MIC” value was found to be 0.7 µM and half-maximal inhibition (IC50) required 410 nM. Also, in the test with E. coli DH5a, the “E. coli DH5a MIC” value came out at 0.7 µM and inhibition was half-maximal at 450 nM (IC50).
